The text below walks through data of article PMC12147205, “Soybean Lectin Cross-Links Membranes by Binding Sulfatide in a Curvature-Dependent Manner” (Journal of Agricultural and Food Chemistry, 2025).

Values joined by “and” are separate entries in the source; they are usually repeats but may differ in a detail not shown here. Identical values can stand only once. “Also recorded” adds a separate entry of the source.

Assay [1] addresses T1, soybean lectin (Glycine max, UniProt P05046).
T1 construct: from tissue; host or cells: soybean meal (Glycine max seed meal)
The experiment in a line: Isothermal titration calorimetry of GalNAc and analogs binding to soybean lectin. As to conditions: for KD / Kd: 50 mM HEPES, 20 mM CaCl2 pH 7, one set of sites model, N fixed to 4, NB = no binding detected (KD over 1–2 mM). The procedure:
Isothermal titration calorimetry (ITC) measurements were performed in a buffer containing 50 mM HEPES and 20 mM CaCl2 (pH 7). […] Each experiment was carried out in duplicate.

Assay [2] deals with T1, soybean lectin. The experiment in a line: Lectin-mediated cross-linking of sulfatide-containing GUVs, confocal microscopy. As to conditions: 7.5 μM lectin; GalNAc at 200 times the lectin concentration. The procedure:
Giant unilamellar vesicles (GUVs) were generated as described by Horger et al. Briefly, an agarose solution was prepared by dissolving 4 g of agarose in 100 mL of Milli-Q water. The solution was poured onto one side of a glass slide and allowed to dry. The glass slide was then placed on a hot plate set to 38 °C. A 30 μL stock solution of lipids (3.75 mg/mL) was prepared in a chloroform–methanol mixture, containing 10% sulfatides, 30% DOPC, 30% cholesterol, 28% DOPE, and 2% DOPE-F (GUV-containing sulfatide) or 33.3% DOPC, 33.3% cholesterol, 31.3% DOPE, and 2% DOPE-F (GUV-sulfatide free). This lipid mixture was spread over the agarose layer on the heated glass slide using another glass slide. The slide remained on the hot plate for a few minutes until the solvent evaporated. To remove residual solvent, the glass slide containing the agarose and lipid film was placed in a vacuum chamber for 20 min. GUVs were then generated by placing the prepared glass slide in a Petri dish and covering it with phosphate buffer saline. The GUV-lectin suspension was prepared with a final lectin concentration of 7.5 μM. […] Confocal microscopy was performed using a Nikon AXR point-scanning confocal system built around an inverted Ti2 Eclipse microscope. […] In some cases, a gamma adjustment of 0.9 was applied to enhance fluorescence localization differences within individual vesicles. […]

For assay [3], the target named is T1, soybean lectin. Put plainly: SPR of lectin binding to sulfatide liposomes immobilized on L1 sensor chip. The following applies: 0.4 μm liposomes, 10% sulfatide/90% DOPC; two-state reaction model; absence of GalNAc; read-out: KD (apparent), lectin to sulfatide liposomes. The procedure:
SPR data were collected using a BIAcore X100 instrument equipped with an L1 sensor chip (Cytiva) coated with 0.4 μm liposomes at room temperature. Liposomes contained 10% sulfatide and 90% DOPC, whereas liposomes without sulfatide were composed of 100% DOPC. All experiments were performed using a buffer consisting of 50 mM HEPES and 140 mM NaCl (pH 7.4). Pretreatment of the sensor chip was performed with 40 mM octyl β-D-glucopyranoside. Liposomes were immobilized onto the L1 sensor chip at a flow rate of 30 μL/min, achieving a typical loading of ∼5500 response units per sensor chip channel. Lectin was used as the analyte across the specified concentration range. […] Data were best fitted using a two-state reaction model, and the apparent K D values were estimated using BIAevaluation software, version 2.0 (Cytiva).

For a further assay, the target named is porcine trypsin (Sus scrofa, UniProt P00761). Put plainly: Binding of soybean meal trypsin inhibitors to porcine trypsin (Table S2).
Chain of porcine trypsin (P00761 9-231): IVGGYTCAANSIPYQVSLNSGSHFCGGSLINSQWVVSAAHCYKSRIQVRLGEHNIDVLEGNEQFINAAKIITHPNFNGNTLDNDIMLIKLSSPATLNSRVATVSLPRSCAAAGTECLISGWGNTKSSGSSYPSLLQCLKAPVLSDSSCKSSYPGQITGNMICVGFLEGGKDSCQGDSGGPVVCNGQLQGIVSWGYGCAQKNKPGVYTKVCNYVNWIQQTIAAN
Where [4] appears, read: ITC competition, lectin preincubated with sulfatide liposomes (10% sulfatide/90% DOPC).
Setting [5] is: ITC competition, lectin preincubated with sulfatide-free liposomes (100% DOPC).
Setting [6] is: TI from soybean meal line 17Ti-0204.
Where [7] appears, read: TI from soybean meal line 17Ti-0242.
Setting [8] is: TI from soybean meal line 17Ti-0332.
The mark [9] stands for this setting: TI from soybean meal line 17Ti-0534.
Setting [10] is: TI from soybean meal line Glenn.

T1 sequence (P05046 33-285): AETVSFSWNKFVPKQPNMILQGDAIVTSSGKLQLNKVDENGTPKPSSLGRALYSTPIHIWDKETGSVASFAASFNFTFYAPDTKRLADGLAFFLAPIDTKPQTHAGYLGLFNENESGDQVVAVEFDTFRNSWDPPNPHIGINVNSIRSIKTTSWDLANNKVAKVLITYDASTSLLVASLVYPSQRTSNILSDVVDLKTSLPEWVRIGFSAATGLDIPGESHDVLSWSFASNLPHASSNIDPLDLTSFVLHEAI

On to `CC(=O)N[C@H]1[C@H]([C@H](O)[C@H](O)CO)O[C@@](OC[C@H]2O[C@@H](O[C@H]3[C@H](O)[C@@H](O)[C@H](O)O[C@@H]3CO)[C@H](O)[C@@H](O)[C@H]2O)(C(=O)O)C[C@@H]1O` [6-SL, 6′-Sialyl lactose], for which the KD entry at soybean lectin [1] (ITC, 25 °C) is recorded as “no detectable binding”. Besides, on soybean lectin [1] (ITC, 25 °C, read-out: KD), the Kd was above 1000 µM.

On to `O=[N+]([O-])c1ccc(O[C@H]2O[C@H](CO)[C@@H](O)[C@H](O)[C@@H]2O)c(Cl)c1` [CNMP, 2-chloro-4-nitrophenyl-α-D-mannopyranoside], for which, on soybean lectin [1] (ITC, 25 °C), the KD result was “no detectable binding”. Further, the Kd on soybean lectin [1] (ITC, 25 °C, read-out: KD) is above 1000 µM.

On to `CC(=O)N[C@@H]1[C@@H](O)[C@@H](O)[C@@H](CO)O[C@H]1O` [GalNAc, N-acetyl-D-galactosamine], for which, at soybean lectin [1] (setting [4]), the ΔG entry was “–5.6 ± 0 kcal/mol”, the ΔH result was “–9.9 ± 0.2 kcal/mol” and the “–TΔS” value is 4.3 ± 0.2 kcal/mol. On soybean lectin [1] (setting [5]), the ΔG result is listed as “–5.6 ± 0 kcal/mol”, the ΔH entry is given as “–9.9 ± 0.2 kcal/mol” and the “–TΔS” value turned out to be 4.3 ± 0.2 kcal/mol. Moreover, at soybean lectin [1] (ITC, 25 °C, pH 7), the ΔG entry is reported as “–5.8 ± 0 kcal/mol”; the “–TΔS” value is 4.5 kcal/mol and 4.5 ± 0.1 kcal/mol. Moreover, the “effect on soybean lectin-mediated cross-linking of sulfatide-containing GUVs” value on soybean lectin [2] was “inhibited; also recorded: reduced”.

With `CO[C@H]1O[C@H](CO)[C@H](O)[C@H](O)[C@H]1NC(C)=O` [MGalNAc, Methyl-N-acetyl-2-deoxy-α-D-galactosamine], the Kd on soybean lectin [1] (ITC, 25 °C, read-out: KD) was 73 µM and 73.1 µM. In addition, on soybean lectin [1] (ITC, 25 °C, pH 7), the ΔG entry is reported as “–5.7 ± 0 kcal/mol”, the ΔH entry is recorded as “–10.7 ± 0.1 kcal/mol” and the “–TΔS” value is on record as 5.0 ± 0.1 kcal/mol.

Take `O=[N+]([O-])c1ccccc1OC1OC(CO)C(O)C(O)C1O` [NPGP, 2-Nitrophenyl-β-D-galactopyranoside]: the “weaker affinity relative to GalNAc” value on soybean lectin [1] (ITC) is given as around 10 fold. Moreover, on soybean lectin [1] (ITC, 25 °C, pH 7), the ΔG result is “–4.3 ± 0 kcal/mol”, the ΔH entry is on record as “–9.8 ± 0.4 kcal/mol” and the “–TΔS” value is recorded as 5.5 ± 0.3 kcal/mol. Moreover, the Kd on soybean lectin [1] (KD, ITC, 25 °C) was 789.5 ± 0.7 µM.

In the case of `O=[N+]([O-])c1ccc(O[C@H]2O[C@H](CO)[C@@H](O)[C@H](O)[C@@H]2O)cc1` [NPMP, 4-nitrophenyl-α-D-mannopyranoside], the KD entry on soybean lectin [1] (ITC, 25 °C) is listed as “no detectable binding”. For the same molecule, at soybean lectin [1] (ITC, 25 °C, read-out: KD), the Kd is above 1000 µM.

Take `CCCCCCCCO[C@H]1O[C@H](CO)[C@@H](O)[C@H](O)[C@@H]1O` [OMP, Octyl-α-D-mannopyranoside]: the KD entry at soybean lectin [1] (ITC, 25 °C) is given as “no detectable binding”. The Kd on soybean lectin [1] (ITC, 25 °C, read-out: KD) was above 1000 µM.

Consider sulfatide, for which the Kd at soybean lectin [3] stood at 0.264 ± 0.062 µM.

B1: BBTI: Birk and Bowman trypsin inhibitor isolated from soybean meal (protein)
chain: DDESSKPCCDQCACTKSNPPQCRCSDMRLNSCHSACKSCICALSYPAQCFCVDITDFCYEPCKPSEDDKEN
modifications: Native protein purified from soybean meal, probably a mixture of Bowman-Birk isoforms
On to B1, for which the Kd stood at 0.1 µM in the assay with porcine trypsin (setting [6]); 0.1 ± 0.1 µM in the assay with porcine trypsin (setting [7]); 0.2 µM with porcine trypsin (setting [8]); 0.1 µM in the assay with porcine trypsin (setting [9]); 0.1 µM in the assay with porcine trypsin (setting [10]).

B2: KTI: Kunitz trypsin inhibitor isolated from soybean meal (protein)
chain: DFVLDNEGNPLENGGTYYILSDITAFGGIRAAPTGNERCPLTVVQSRNELDKGIGTIISSPYRIRFIAEGHPLSLKFDSFAVIMLCVGIPTEWSVVEDLPEGPAVKIGENKDAMDGWFRLERVSDDEFNNYKLVFCPQQAEDDKCGDIGISIDHDDGTRRLVVSKNKPLVVQFQKLDKESL
modifications: Native protein purified from soybean meal
In the case of B2, the Kd in the assay with porcine trypsin (setting [6]) stood at 9 ± 2 µM; in the assay with porcine trypsin (setting [7]), 2.4 ± 0.3 µM; in the assay with porcine trypsin (setting [8]), 1.2 ± 0.1 µM; in the assay with porcine trypsin (setting [9]), 2.4 ± 0.1 µM; with porcine trypsin (setting [10]) it was 1.1 ± 0.4 µM.
